PMC8952190, “Bromodomain and Extra-Terminal Inhibitor BMS-986158 Reverses Latent HIV-1 Infection In Vitro and Ex Vivo by Increasing CDK9 Phosphorylation and Recruitment” (Pharmaceuticals, 2022)

Assays:
BRD4 = BRD4 (Homo sapiens, UniProt O60885); assay: HTRF binding assay (cell-free, protein and peptide)
BRD2 = target: T1, BRD2 (Homo sapiens, UniProt P25440); assay: as above
T1 construct: BRD2(1,2)
T1 sequence (P25440 whole entry): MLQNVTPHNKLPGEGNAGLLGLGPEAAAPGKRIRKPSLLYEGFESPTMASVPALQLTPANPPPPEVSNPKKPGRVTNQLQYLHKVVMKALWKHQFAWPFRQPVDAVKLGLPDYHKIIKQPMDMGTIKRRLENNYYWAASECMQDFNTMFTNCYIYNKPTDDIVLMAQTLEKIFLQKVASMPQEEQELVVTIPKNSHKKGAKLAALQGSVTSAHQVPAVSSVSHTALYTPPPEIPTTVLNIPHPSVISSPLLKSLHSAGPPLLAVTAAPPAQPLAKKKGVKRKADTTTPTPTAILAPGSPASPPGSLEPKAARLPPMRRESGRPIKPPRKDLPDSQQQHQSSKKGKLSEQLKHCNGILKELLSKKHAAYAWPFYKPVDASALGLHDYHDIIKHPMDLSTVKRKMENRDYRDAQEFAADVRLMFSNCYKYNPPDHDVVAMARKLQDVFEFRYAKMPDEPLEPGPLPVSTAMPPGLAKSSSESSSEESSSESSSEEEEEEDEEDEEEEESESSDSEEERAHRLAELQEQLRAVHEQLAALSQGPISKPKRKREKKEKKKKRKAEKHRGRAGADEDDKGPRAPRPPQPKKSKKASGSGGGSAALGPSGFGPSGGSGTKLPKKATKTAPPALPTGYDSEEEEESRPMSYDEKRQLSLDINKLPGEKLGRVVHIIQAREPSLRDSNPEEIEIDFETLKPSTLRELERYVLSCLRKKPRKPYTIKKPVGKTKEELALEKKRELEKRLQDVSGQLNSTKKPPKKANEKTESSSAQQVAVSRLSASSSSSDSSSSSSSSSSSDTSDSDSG

Cc1nnn(C)c1-c1cnc2c3ccc(C(C)(C)O)cc3n([C@H](c3ccccc3)C3CCOCC3)c2c1 [BMS-986158]
IC50 (BRD4): 2.75 nM
IC50 (BRD2): 1.17 nM
